#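 1) Cells in 96-well plates. 2) Compound, 48 h, 5 concentrations. 3) Linear interpolation between surrounding doses. 4) Unreached endpoint = highest concentration. The concentration for 50% growth inhibition is given as GI50. TGI: concentration producing complete growth inhibition.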
# Tests used:
# Experiment in all cases: growth of human tumour cells (NCI), 48 h
# MDA-MB-231 breast = test system: MDA-MB-231 breast
# DU-145 prostate = test system: DU-145 prostate
# NCI-H23 lung = test system: NCI-H23 lung
# LOX IMVI melanoma = test system: LOX IMVI melanoma
# TK-10 renal = test system: TK-10 renal
# HT29 colon = test system: HT29 colon
# SK-MEL-2 melanoma = test system: SK-MEL-2 melanoma
# MCF7 breast = test system: MCF7 breast
# SN12C renal = test system: SN12C renal
# 786-0 renal = test system: 786-0 renal
# OVCAR-4 ovarian = test system: OVCAR-4 ovarian
# COLO 205 colon = test system: COLO 205 colon
# MDA-MB-468 breast = test system: MDA-MB-468 breast
# MALME-3M melanoma = test system: MALME-3M melanoma
# UACC-62 melanoma = test system: UACC-62 melanoma
# SNB-75 CNS = test system: SNB-75 CNS
# OVCAR-3 ovarian = test system: OVCAR-3 ovarian
# SK-MEL-5 melanoma = test system: SK-MEL-5 melanoma
# HOP-62 NSCLC = test system: HOP-62 NSCLC
# CCRF-CEM leukemia = test system: CCRF-CEM leukemia
# T-47D breast = test system: T-47D breast
# RXF 393 renal = test system: RXF 393 renal
# UO-31 renal = test system: UO-31 renal
# SR leukemia = test system: SR leukemia
# NCI-H226 lung = test system: NCI-H226 lung
# OVCAR-5 ovarian = test system: OVCAR-5 ovarian
# NCI-H522 lung = test system: NCI-H522 lung
# U251 CNS = test system: U251 CNS
# RPMI-8226 leukemia = test system: RPMI-8226 leukemia
# KM12 colon = test system: KM12 colon
# SK-MEL-28 melanoma = test system: SK-MEL-28 melanoma
# A549 NSCLC = test system: A549 NSCLC
# MOLT-4 leukemia = test system: MOLT-4 leukemia
# SW-620 colon = test system: SW-620 colon
# SF-539 CNS = test system: SF-539 CNS
# CAKI-1 renal = test system: CAKI-1 renal
# HCC-2998 colon = test system: HCC-2998 colon
# ACHN renal = test system: ACHN renal
# SF-268 CNS = test system: SF-268 CNS
# SK-OV-3 ovarian = test system: SK-OV-3 ovarian
# NCI-H460 lung = test system: NCI-H460 lung
# SF-295 CNS = test system: SF-295 CNS
# PC-3 prostate = test system: PC-3 prostate
# A498 renal = test system: A498 renal
# HCT-116 colon = test system: HCT-116 colon
# HL-60(TB) leukemia = test system: HL-60(TB) leukemia
# HS 578T breast = test system: HS 578T breast
# K-562 leukemia = test system: K-562 leukemia
# BT-549 breast = test system: BT-549 breast
# EKVX NSCLC = test system: EKVX NSCLC
# HOP-92 NSCLC = test system: HOP-92 NSCLC
# M14 melanoma = test system: M14 melanoma
# HCT-15 colon = test system: HCT-15 colon
# SNB-19 CNS = test system: SNB-19 CNS
# IGROV1 ovarian = test system: IGROV1 ovarian
# OVCAR-8 ovarian = test system: OVCAR-8 ovarian
structure (smiles),measurement,setting,value
O=C(Nc1cccc(-c2cn(-c3ccc4oc(=O)ccc4c3)nn2)c1)Nc1cc(C(F)(F)F)cc(C(F)(F)F)c1,GI50,MDA-MB-231 breast,18.2 µM
same,TGI,MDA-MB-231 breast,> 100 µM
same,GI50,DU-145 prostate,8.09 µM
same,TGI,DU-145 prostate,> 100 µM
same,GI50,NCI-H23 lung,3.34 µM
same,TGI,NCI-H23 lung,> 100 µM
same,GI50,LOX IMVI melanoma,7.55 µM
same,TGI,LOX IMVI melanoma,> 100 µM
same,GI50,TK-10 renal,13.4 µM
same,TGI,TK-10 renal,56.9 µM
same,GI50,HT29 colon,> 100 µM
same,TGI,HT29 colon,> 100 µM
same,GI50,SK-MEL-2 melanoma,5.55 µM
same,TGI,SK-MEL-2 melanoma,25.7 µM
same,GI50,MCF7 breast,4.41 µM
same,TGI,MCF7 breast,> 100 µM
same,GI50,SN12C renal,6.31 µM
same,TGI,SN12C renal,> 100 µM
same,GI50,786-0 renal,12.6 µM
same,TGI,786-0 renal,68.1 µM
same,GI50,OVCAR-4 ovarian,3.42 µM
same,TGI,OVCAR-4 ovarian,> 100 µM
same,GI50,COLO 205 colon,> 100 µM
same,TGI,COLO 205 colon,> 100 µM
same,GI50,MDA-MB-468 breast,2.43 µM
same,TGI,MDA-MB-468 breast,8.69 µM
same,GI50,MALME-3M melanoma,28.2 µM
same,TGI,MALME-3M melanoma,> 100 µM
same,GI50,UACC-62 melanoma,6.8 µM
same,TGI,UACC-62 melanoma,> 100 µM
same,GI50,SNB-75 CNS,10.2 µM
same,TGI,SNB-75 CNS,45.1 µM
same,GI50,OVCAR-3 ovarian,3.31 µM
same,TGI,OVCAR-3 ovarian,> 100 µM
same,GI50,SK-MEL-5 melanoma,4.18 µM
same,TGI,SK-MEL-5 melanoma,> 100 µM
same,GI50,HOP-62 NSCLC,8.08 µM
same,TGI,HOP-62 NSCLC,66.9 µM
same,GI50,CCRF-CEM leukemia,3.31 µM
same,TGI,CCRF-CEM leukemia,> 100 µM
same,GI50,T-47D breast,3.14 µM
same,TGI,T-47D breast,> 100 µM
same,GI50,RXF 393 renal,2.44 µM
same,TGI,RXF 393 renal,8.47 µM
same,GI50,UO-31 renal,6.34 µM
same,TGI,UO-31 renal,> 100 µM
same,GI50,SR leukemia,5.63 µM
same,TGI,SR leukemia,> 100 µM
same,GI50,NCI-H226 lung,5.57 µM
same,TGI,NCI-H226 lung,> 100 µM
same,GI50,OVCAR-5 ovarian,> 100 µM
same,TGI,OVCAR-5 ovarian,> 100 µM
same,GI50,NCI-H522 lung,4.39 µM
same,TGI,NCI-H522 lung,> 100 µM
same,GI50,U251 CNS,4.69 µM
same,TGI,U251 CNS,> 100 µM
same,GI50,RPMI-8226 leukemia,2.88 µM
same,TGI,RPMI-8226 leukemia,> 100 µM
same,GI50,KM12 colon,5.2 µM
same,TGI,KM12 colon,> 100 µM
same,GI50,SK-MEL-28 melanoma,> 100 µM
same,TGI,SK-MEL-28 melanoma,> 100 µM
same,GI50,A549 NSCLC,5.1 µM
same,TGI,A549 NSCLC,> 100 µM
same,GI50,MOLT-4 leukemia,3.82 µM
same,TGI,MOLT-4 leukemia,> 100 µM
same,GI50,SW-620 colon,55.5 µM
same,TGI,SW-620 colon,> 100 µM
same,GI50,SF-539 CNS,15.1 µM
same,TGI,SF-539 CNS,> 100 µM
same,GI50,CAKI-1 renal,6.3 µM
same,TGI,CAKI-1 renal,> 100 µM
same,GI50,HCC-2998 colon,8.14 µM
same,TGI,HCC-2998 colon,> 100 µM
same,GI50,ACHN renal,6.86 µM
same,TGI,ACHN renal,90.2 µM
same,GI50,SF-268 CNS,21.3 µM
same,TGI,SF-268 CNS,> 100 µM
same,GI50,SK-OV-3 ovarian,18.6 µM
same,TGI,SK-OV-3 ovarian,> 100 µM
same,GI50,NCI-H460 lung,4.81 µM
same,TGI,NCI-H460 lung,> 100 µM
same,GI50,SF-295 CNS,3.31 µM
same,TGI,SF-295 CNS,> 100 µM
same,GI50,PC-3 prostate,4.07 µM
same,TGI,PC-3 prostate,> 100 µM
same,GI50,A498 renal,20.7 µM
same,TGI,A498 renal,> 100 µM
same,GI50,HCT-116 colon,7.17 µM
same,TGI,HCT-116 colon,> 100 µM
same,GI50,HL-60(TB) leukemia,6.5 µM
same,TGI,HL-60(TB) leukemia,> 100 µM
same,GI50,HS 578T breast,5.16 µM
same,TGI,HS 578T breast,> 100 µM
same,GI50,K-562 leukemia,3.25 µM
same,TGI,K-562 leukemia,> 100 µM
same,GI50,BT-549 breast,7.19 µM
same,TGI,BT-549 breast,> 100 µM
same,GI50,EKVX NSCLC,5.04 µM
same,TGI,EKVX NSCLC,> 100 µM
same,GI50,HOP-92 NSCLC,3.66 µM
same,TGI,HOP-92 NSCLC,31.3 µM
same,GI50,M14 melanoma,> 100 µM
same,TGI,M14 melanoma,> 100 µM
same,GI50,HCT-15 colon,5.15 µM
same,TGI,HCT-15 colon,> 100 µM
same,GI50,SNB-19 CNS,10.1 µM
same,TGI,SNB-19 CNS,89.8 µM
same,GI50,IGROV1 ovarian,8.87 µM
same,TGI,IGROV1 ovarian,> 100 µM
same,GI50,OVCAR-8 ovarian,5.73 µM
same,TGI,OVCAR-8 ovarian,> 100 µM
